target: T1, human mGlu2 receptor (Homo sapiens, UniProt Q14416); assay: FLIPR intracellular Ca2+ assay, potentiation of glutamate response in HEK293 clone expressing mGlu2 receptor, rGLAST and Galpha16; type: cell-based; details: 1 μM glutamate added ten minutes after test compound, HEK293 cells with human mGlu2, rGLAST, Galpha16, read-out: EC50 values of potentiation effect to glutamate
T1 construct: expressed in transfected cells; host or cells: HEK293
Outline: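 HEK293 cells stably expressing human mGlu2, rat GLAST and Gα16 were loaded with 2 µM Fluo-4 AM and intracellular Ca2+ read by FLIPR. Compound added alone (agonism), then with submaximal glutamate (e.g. 1 µM; potentiation). Background-subtracted peaks normalized to 100 µM glutamate response; EC50 from four-parameter fit.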

T1 sequence (Q14416 19-872): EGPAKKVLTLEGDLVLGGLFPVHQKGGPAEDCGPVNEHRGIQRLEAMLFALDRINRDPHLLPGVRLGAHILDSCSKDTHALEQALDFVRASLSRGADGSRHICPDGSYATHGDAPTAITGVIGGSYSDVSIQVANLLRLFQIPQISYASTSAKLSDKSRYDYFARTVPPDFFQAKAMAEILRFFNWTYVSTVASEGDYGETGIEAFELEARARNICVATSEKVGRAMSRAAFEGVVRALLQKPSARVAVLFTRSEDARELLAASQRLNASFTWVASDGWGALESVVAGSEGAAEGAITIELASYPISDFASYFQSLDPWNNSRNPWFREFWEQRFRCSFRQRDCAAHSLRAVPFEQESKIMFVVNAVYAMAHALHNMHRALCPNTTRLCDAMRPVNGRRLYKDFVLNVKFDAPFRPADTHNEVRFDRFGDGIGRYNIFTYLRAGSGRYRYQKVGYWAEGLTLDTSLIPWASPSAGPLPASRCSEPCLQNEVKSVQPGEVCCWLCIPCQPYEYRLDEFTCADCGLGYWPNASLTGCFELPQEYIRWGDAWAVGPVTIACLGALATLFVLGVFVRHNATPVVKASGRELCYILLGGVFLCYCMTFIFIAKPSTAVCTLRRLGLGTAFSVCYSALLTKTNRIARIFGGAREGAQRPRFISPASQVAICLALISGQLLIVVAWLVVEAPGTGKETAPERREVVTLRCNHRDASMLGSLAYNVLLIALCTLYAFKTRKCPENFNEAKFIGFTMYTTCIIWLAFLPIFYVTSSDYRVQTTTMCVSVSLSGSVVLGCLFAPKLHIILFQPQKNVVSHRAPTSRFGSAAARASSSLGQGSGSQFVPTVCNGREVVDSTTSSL

| EC50 [µM] | SMILES |
| --- | --- |
| 1 to 10 | COC(=O)c1ccc(NCc2c[nH]nc2-c2ccc(Cl)cc2)cc1 [Example 443, 4-{[3-(4-Chloro-phenyl)-1H-pyrazol-4-ylmethyl]-amino}-benzoic acid methyl ester] |
| 1 to 10 | CCC(CC)Oc1cccc(N(Cc2c[nH]nc2-c2ccc(C(F)(F)F)cc2)S(=O)(=O)CC(F)(F)F)c1 [Example 454, 2,2,2-Trifluoro-ethanesulfonic acid [3-(1-ethyl-propoxy)-phenyl]-[3-(4-trifluoromethyl-phenyl)-1H-pyrazol-4-ylmethyl]-amide] |
| 1 to 10 | CC(C)(C)c1n[nH]cc1CN(c1cccc(OC2CCCC2)c1)S(=O)(=O)CC(F)(F)F [Example 458, 2,2,2-Trifluoro-ethanesulfonic acid (3-tert-butyl-1H-pyrazol-4-ylmethyl)-(3-cyclopentyloxy-phenyl)-amide] |
| 1 to 10 | CCCC(=O)c1ccc(NCc2c[nH]nc2C)cc1 [Example 475, 1-{4-[(3-Methyl-1H-pyrazol-4-ylmethyl)-amino]-phenyl}-butan-1-one] |
| 1 to 10 | CCCC(=O)c1ccc(NCc2c[nH]nc2CCC)cc1 [Example 476, 1-{4-[(3-Propyl-1H-pyrazol-4-ylmethyl)-amino]-phenyl}-butan-1-one] |
| 1 to 10 | CCCC(=O)c1ccc(NCc2c[nH]nc2C(C)C)cc1 [Example 477, 1-{4-[(3-Isopropyl-1H-pyrazol-4-ylmethyl)-amino]-phenyl}-butan-1-one] |
| 1 to 10 | CCCC(=O)c1ccc(NCc2c[nH]nc2CC)cc1 [Example 478, 1-{4-[(3-Ethyl-1H-pyrazol-4-ylmethyl)-amino]-phenyl}-butan-1-one] |
| 1 to 10 | CC(=O)c1ccc(OCc2c[nH]nc2-c2ccc(C(F)(F)F)cc2)cc1 [Example 483, 1-{4-[3-(4-Trifluoromethyl-phenyl)-1H-pyrazol-4-ylmethoxy]-phenyl}-ethanone] |
| 1 to 10 | CC(=O)c1ccc(OCc2c[nH]nc2-c2ccc(C(F)(F)F)cc2)cc1F [Example 485, 1-{2-Fluoro-4-[3-(4-trifluoromethyl-phenyl)-1H-pyrazol-4-ylmethoxy]-phenyl}-ethanone] |
| 1 to 10 | CC(=O)c1ccc(OCc2c[nH]nc2-c2ccc(C(F)(F)F)cc2)cc1C [Example 487, 1-{2-Methyl-4-[3-(4-trifluoromethyl-phenyl)-1H-pyrazol-4-ylmethoxy]-phenyl}-ethanone] |
| 1 to 10 | CC(=O)c1ccc(OCc2c[nH]nc2-c2ccc(C(F)(F)F)cc2)c(C)c1 [Example 488, 1-{3-Methyl-4-[3-(4-trifluoromethyl-phenyl)-1H-pyrazol-4-ylmethoxy]-phenyl}-ethanone] |
| < 1 | CCC(=O)c1ccc(OCc2c[nH]nc2-c2ccc(C(F)(F)F)cc2)cc1 [Example 489, 1-{4-[3-(4-Trifluoromethyl-phenyl)-1H-pyrazol-4-ylmethoxy]-phenyl}-propan-1-one] |
| < 1 | CCCCC(=O)c1ccc(OCc2c[nH]nc2-c2ccc(C(F)(F)F)cc2)cc1 [Example 490, 1-{4-[3-(4-Trifluoromethyl-phenyl)-1H-pyrazol-4-ylmethoxy]-phenyl}-pentan-1-one] |
| < 1 | CCCCCC(=O)c1ccc(OCc2c[nH]nc2-c2ccc(C(F)(F)F)cc2)cc1 [Example 491, 1-{4-[3-(4-Trifluoromethyl-phenyl)-1H-pyrazol-4-ylmethoxy]-phenyl}-hexan-1-one] |
| 1 to 10 | CCCC(=O)c1ccc(SCc2c[nH]nc2-c2ccc(C(F)(F)F)cc2)cc1 [Example 492, 1-{4-[3-(4-Trifluoromethyl-phenyl)-1H-pyrazol-4-ylmethylsulfanyl]-phenyl}-butan-1-one] |
| < 1 | CCCC(=O)c1ccc(OCc2c[nH]nc2-c2ccc(C(F)(F)F)cc2)cc1 [Example 494, 1-{4-[3-(4-Trifluoromethyl-phenyl)-1H-pyrazol-4-ylmethoxy]-phenyl}-butan-1-one] |
| < 1 | CCCC(=O)c1ccc(OCc2c[nH]nc2-c2ccc(F)cc2)cc1 [Example 495, 1-{4-[3-(4-Fluorophenyl)-1H-pyrazol-4-ylmethoxy]-phenyl}-butan-1-one] |
| < 1 | CCCC(=O)c1ccc(OCc2c[nH]nc2-c2ccc(Cl)cc2)cc1 [Example 496, 1-{4-[3-(4-Chloro-phenyl)-1H-pyrazol-4-ylmethoxy]-phenyl}-butan-1-one] |
| < 1 | CCCC(=O)c1ccc(OCc2c[nH]nc2-c2cccc(F)c2)cc1 [Example 497, 1-{4-[3-(3-Fluorophenyl)-1H-pyrazol-4-ylmethoxy]-phenyl}-butan-1-one] |

| EC50 [µM] | SMILES |
| --- | --- |
| < 1 | CCCC(=O)c1ccc(OCc2c[nH]nc2-c2cccc(C(F)(F)F)c2)cc1 [Example 498, 1-{4-[3-(3-Trifluoromethyl-phenyl)-1H-pyrazol-4-ylmethoxy]-phenyl}-butan-1-one] |
| < 1 | CCCC(=O)c1ccc(OCc2c[nH]nc2-c2ccccc2)cc1 [Example 499, 1-[4-(3-Phenyl-1H-pyrazol-4-ylmethoxy)-phenyl]-butan-1-one] |
| 1 to 10 | CC(=O)c1ccc(NCc2c[nH]nc2-c2ccc(C(F)(F)F)cc2)cc1 [Example 501, 1-(4-{[3-(4-Trifluoromethyl-phenyl)-1H-pyrazol-4-ylmethyl]-amino}-phenyl)-ethanone] |
| 1 to 10 | CCCC(=O)c1cccc(NCc2c[nH]nc2-c2ccc(C(F)(F)F)cc2)c1 [Example 503, 1-(3-{[3-(4-Trifluoromethyl-phenyl)-1H-pyrazol-4-ylmethyl]-amino}-phenyl)-butan-1-one] |
| 1 to 10 | O=C(c1ccccc1)c1ccc(NCc2c[nH]nc2-c2ccc(C(F)(F)F)cc2)cc1 [Example 504, Phenyl-(4-{[3-(4-trifluoromethyl-phenyl)-1H-pyrazol-4-ylmethyl]-amino}-phenyl)-methanone] |
| 1 to 10 | O=C(c1ccc(NCc2c[nH]nc2-c2ccc(C(F)(F)F)cc2)cc1)C(F)(F)F [Example 506, 2,2,2-Trifluoro-1-(4-{[3-(4-trifluoromethyl-phenyl)-1H-pyrazol-4-ylmethyl]-amino}-phenyl)-ethanone] |
| 1 to 10 | CC(=O)c1ccc2c(c1)CCN2Cc1c[nH]nc1-c1ccc(C(F)(F)F)cc1 [Example 507, 1-{1-[3-(4-Trifluoromethyl-phenyl)-1H-pyrazol-4-ylmethyl]2,3-dihydro1H-indol-5-yl}-ethanone] |
| < 1 | CCCC(=O)c1ccc(NCc2c[nH]nc2-c2ccc(F)cc2)cc1 [Example 508, 1-(4-{[3-(4-Fluorophenyl)-1H-pyrazol-4-ylmethyl]-amino}-phenyl)-butan-1-one] |
| < 1 | CCCC(=O)c1ccc(NCc2c[nH]nc2-c2cccc(Cl)c2)cc1 [Example 509, 1-(4-{[3-(3-Chloro-phenyl)-1H-pyrazol-4-ylmethyl]-amino}-phenyl)-butan-1-one] |
| < 1 | CCCC(=O)c1ccc(NCc2c[nH]nc2-c2ccccc2Cl)cc1 [Example 510, 1-(4-{[3-(2-Chloro-phenyl)-1H-pyrazol-4-ylmethyl]-amino}-phenyl)-butan-1-one] |
| < 1 | CCCC(=O)c1ccc(NCc2c[nH]nc2-c2cccc(F)c2)cc1 [Example 511, 1-(4-{[3-(3-Fluorophenyl)-1H-pyrazol-4-ylmethyl]-amino}-phenyl)-butan-1-one] |
| < 1 | CCCC(=O)c1ccc(NCc2n[nH]cc2-c2ccc(OC)cc2)cc1 [Example 513, 1-(4-{[4-(4-Methoxy-phenyl)-1H-pyrazol-3-ylmethyl]-amino}-phenyl)-butan-1-one] |
| 1 to 10 | CCCC(=O)c1cccc(NCc2n[nH]cc2-c2ccc(OC)cc2)c1 [Example 514, 1-(3-{[4-(4-Methoxy-phenyl)-1H-pyrazol-3-ylmethyl]-amino}-phenyl)-butan-1-one] |
| 1 to 10 | CCCC(=O)c1cccc(NCc2n[nH]cc2-c2ccc(CC)cc2)c1 [Example 515, 1-(3-{[4-(4-Ethyl-phenyl)-1H-pyrazol-3-ylmethyl]-amino}-phenyl)-butan-1-one] |
| < 1 | CCCC(=O)c1ccc(NCc2n[nH]cc2-c2ccc(CC)cc2)cc1 [Example 516, 1-(4-{[4-(4-Ethyl-phenyl)-1H-pyrazol-3-ylmethyl]-amino}-phenyl)-butan-1-one] |
| < 1 | CCCC(=O)c1ccc(NCc2n[nH]cc2-c2ccc(C(F)(F)F)cc2)cc1 [Example 517, 1-(4-{[4-(4-Trifluoromethyl-phenyl)-1H-pyrazol-3-ylmethyl]-amino}-phenyl)-butan-1-one] |
| 1 to 10 | CCCC(=O)c1ccc(NCc2n[nH]cc2-c2ccc(Cl)cc2)cc1 [Example 518, 1-(4-{[4-(4-Chloro-phenyl)-1H-pyrazol-3-ylmethyl]-amino}-phenyl)-butan-1-one] |
| 1 to 10 | CCCC(=O)c1ccc(NCc2n[nH]nc2-c2ccccc2)cc1 [Example 519] |
| < 1 | CCCC(=O)c1ccc(OCc2n[nH]cc2-c2ccc(OC)cc2)cc1 [Example 520, 1-{4-[4-(4-Methoxy-phenyl)-1H-pyrazol-3-ylmethoxy]-phenyl}-butan-1-one] |

| SMILES | EC50 [µM] |
| --- | --- |
| CCCC(C)Oc1cccc(N(Cc2c[nH]nc2-c2ccc(C(F)(F)F)cc2)S(=O)(=O)CC(F)(F)F)c1 (centres unmarked) [Example 455, 2,2,2-Trifluoro-ethanesulfonic acid [3-(1-methyl-butoxy)-phenyl]-[3-(4-trifluoromethyl-phenyl)-1H-pyrazol-4-ylmethyl]-amide] | 1 to 10 |
| CCC(C)Oc1cccc(N(Cc2c[nH]nc2-c2ccc(C(F)(F)F)cc2)S(=O)(=O)CC(F)(F)F)c1 (centres unmarked) [Example 456, 2,2,2-Trifluoro-ethanesulfonic acid (3-sec-butoxy-phenyl)-[3-(4-trifluoromethyl-phenyl)-1H-pyrazol-4-ylmethyl]-amide] | 1 to 10 |
| CCC(C)COc1cccc(N(Cc2c[nH]nc2-c2ccc(C(F)(F)F)cc2)S(=O)(=O)CC(F)(F)F)c1 (centres unmarked) [Example 457, 2,2,2-Trifluoro-ethanesulfonic acid [3-(2-methyl-butoxy)-phenyl]-[3-(4-trifluoromethyl-phenyl)-1H-pyrazol-4-ylmethyl]-amide] | 1 to 10 |
